Experimental data reported in publication PMC5647378, “Structural and Mechanistic Analysis of Drosophila melanogaster Agmatine N-Acetyltransferase, an Enzyme that Catalyzes the Formation of N-Acetylagmatine” (Scientific Reports, 2017).
Substitutions are numbered along the chain they refer to. Values joined by “and” are separate entries in the source; they are usually repeats but may differ in a detail not shown here. Identical values can stand only once. Like-named read-outs stand apart in the source and are kept apart here.

Experiments:
AgmNAT H206A mutant = molecular target: T1, AgmNAT H206A mutant (Drosophila melanogaster, UniProt Q9W469, H206A); experiment: Steady-state kinetics of AgmNAT site-directed mutant H206A; format: biochemical; settings: for increase of Km,app versus wild-type: H206A mutant; for (kcat/Km)app–mutant/(kcat/Km)app–wild–type×100: H206A
T1 sequence (Q9W469 1-216 H206A): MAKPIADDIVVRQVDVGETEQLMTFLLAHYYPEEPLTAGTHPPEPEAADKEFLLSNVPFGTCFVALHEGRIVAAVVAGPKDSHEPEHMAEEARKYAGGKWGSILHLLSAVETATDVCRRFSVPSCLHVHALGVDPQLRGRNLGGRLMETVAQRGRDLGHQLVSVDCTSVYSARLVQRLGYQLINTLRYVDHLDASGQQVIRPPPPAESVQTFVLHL
Method: (§1) Site-directed mutants of AgmNAT were constructed by the overlap extension method. Using the primers shown in Table S1, each mutant was amplified using pfuUltra High-Fidelity DNA polymerase with the following PCR conditions: initial denaturing step of 95 °C for 2 min, then 30 cycles of 95 °C for 30 s; 60 °C annealing temperature for 30 s; 72 °C extension step for 1 min; then a final extension step of 72 °C for 10 min. Following the amplification of the AgmNAT site-directed mutant, the sub-cloning, expression, and purification procedures are the same as discussed for the wild-type enzyme.
(§2) Steady-state kinetic constants for AgmNAT were determined by measuring the rate of coenzyme A release using Ellman’s reagent (DTNB) at 412 nm (molar absorptivity = 13,600 M^−1 cm^−1)[15]–[17]. […] Initial velocities were measured using a Cary 300 Bio UV-Visible spectrophotometer at 22 °C. Acyl-CoA kinetic constants were evaluated by holding the concentration of agmatine at a constant saturating concentration (5 mM). […] The apparent kinetic constants were determined by fitting the resulting data to equation 1 using SigmaPlot 12.0, where vo is the initial velocity, Vmax,app is the apparent maximal velocity, [S] is the substrate concentration, and Km,app is the apparent Michaelis constant. Each assay was performed in triplicate and the uncertainty for the kcat,app and (kcat/Km)app values were calculated using equation 2, where σ is the standard error.1 vo=Vmax,app[S]/Km,app+[S] 2 σ(x/y)=x/y(σx/x)^2+(σy/y)^2

AgmNAT E34A mutant = molecular target: T2, AgmNAT E34A mutant (Drosophila melanogaster, UniProt Q9W469, E34A); experiment: Steady-state kinetics of AgmNAT site-directed mutant E34A; format: biochemical; settings: for (kcat/Km)app–mutant/(kcat/Km)app–wild–type×100: E34A
T2 sequence (Q9W469 1-216 E34A): T1 sequence (Q9W469 1-216 H206A) with E34A, A206H
Method: as §1, §2

[1] = molecular target: T3, Drosophila melanogaster AgmNAT (CG15766), wild-type (Drosophila melanogaster, UniProt Q9W469); experiment: AgmNAT steady-state kinetics, coenzyme A release with Ellman's reagent (DTNB); format: biochemical
T3 sequence (Q9W469 entry or part of it): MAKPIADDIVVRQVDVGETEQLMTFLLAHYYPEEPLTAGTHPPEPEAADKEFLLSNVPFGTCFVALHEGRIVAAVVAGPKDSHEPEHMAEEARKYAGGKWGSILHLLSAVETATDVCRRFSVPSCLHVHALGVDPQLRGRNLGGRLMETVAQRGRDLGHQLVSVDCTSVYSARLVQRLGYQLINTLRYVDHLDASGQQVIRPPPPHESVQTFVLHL
Method: as §2

AgmNAT S171A mutant = molecular target: T4, AgmNAT S171A mutant (Drosophila melanogaster, UniProt Q9W469, S171A); experiment: Steady-state kinetics of AgmNAT site-directed mutant S171A; format: biochemical; settings: for (kcat/Km)app–mutant/(kcat/Km)app–wild–type×100: S171A
T4 sequence (Q9W469 1-216 S171A): T1 sequence (Q9W469 1-216 H206A) with S171A, A206H
Method: as §1, §2

AgmNAT P35A mutant = molecular target: T5, AgmNAT P35A mutant (Drosophila melanogaster, UniProt Q9W469, P35A); experiment: Steady-state kinetics of AgmNAT site-directed mutant P35A; format: biochemical
T5 sequence (Q9W469 1-216 P35A): T1 sequence (Q9W469 1-216 H206A) with P35A, A206H
Method: as §1
as §2, with “Each assay was performed in triplicate and the uncertainty for the kcat,app and (kcat/Km)app values were calculated using equation 2, where σ is the standard error.1 vo=Vmax,app[S]/Km,app+[S] 2 σ(x/y)=x/y(σx/x)^2+(σy/y)^2” left out

[2] = molecular target: T3, Drosophila melanogaster AgmNAT (CG15766), wild-type; experiment: AgmNAT dead-end and product inhibition analysis; format: biochemical
Method: Initial velocities were determined by varying the concentration of one substrate, while holding the other substrate at a fixed concentration. […] The resulting initial velocity data was fit to equation 3 for an ordered Bi-Bi mechanism and equation 4 for a ping pong mechanism using IGOR Pro 6.34 A, where vo is the initial velocity, Vmax is the maximal velocity, Kia is the dissociation constant for substrate A, Kb is the Michaelis constant for substrate B, Ka is the Michaelis constant for substrate A, [A] is the concentration of substrate A, and [B] is the concentration of substrate B.3 vo=Vmax[A][B]/KiaKb+Ka[B]+Kb[A]+[A][B] 4 vo=Vmax[A][B]/Ka[B]+Kb[A]+[A][B]
Inhibition experiments by either substrate analogs or N-acetylagamatine were used to discriminate between an ordered, random sequential, or ping pong kinetic mechanism. […] Initial velocity patterns were generated by varying the concentration of one substrate, holding the other substrate concentration at its apparent Km, and changing the concentration of inhibitor for each data set in triplicate. The resulting data was fit to equations 5–7, for competitive, noncompetitive, and uncompetitive inhibition respectively using SigmaPlot 12.0. For […], vo is the initial velocity, Vmax,app is the apparent maximal velocity, Km,app is the apparent Michaelis constant, [S] is the substrate concentration, [I] is the inhibitor concentration, and Ki is the inhibition constant.5 vo=Vmax,app[S]/Km,app(1+[I]/Ki)+[S] 6 vo=Vmax,app[S]/Km,app(1+[I]/Ki)+[S](1+[I]/Ki) 7 vo=Vmax,app[S]/Km,app+[S](1+[I]/Ki)

[3] = molecular target: T3, Drosophila melanogaster AgmNAT (CG15766), wild-type; experiment: AgmNAT dead-end and product inhibition analysis; format: biochemical; settings: inhibitor at 10 mM
Glu34 = Glu34 (UniProt position 34, HYYPEEPLTAG); experiment: kinetics; settings: 22 °C; MES (pH 6.5 and 7.0), Tris (pH 7.0-9.0), AmeP (pH 9.0 and 9.5). Concentrations for the pH series not stated (standard assay is 300 mM Tris with 150 µM DTNB).; Steady-state turnover; acetyl-CoA varied, agmatine as co-substrate (5 mM saturating in the standard assay); wild-type enzyme, triplicate

CC(=O)SCCNC(=O)CCNC(=O)[C@H](O)C(C)(C)COP(=O)(O)OP(=O)(O)OC[C@H]1O[C@@H](n2cnc3c(N)ncnc32)[C@H](O)[C@@H]1OP(=O)(O)O [Acetyl-CoA]
increase of Km,app versus wild-type (AgmNAT H206A mutant; acetyl-CoA): 2.3 fold
(kcat/Km)app–mutant/(kcat/Km)app–wild–type×100 (AgmNAT H206A mutant; acetyl-CoA varied): 2.3%
decrease of Km,app versus wildtype (AgmNAT E34A mutant; E34A mutant, acetyl-CoA): 6 fold
(kcat/Km)app–mutant/(kcat/Km)app–wild–type×100 (AgmNAT E34A mutant; acetyl-CoA varied): 0.27%
(kcat/Km)app–mutant/(kcat/Km)app–wild–type×100 ([1]; Wild-type, acetyl-CoA varied): 100%
kcat,app ([1]; Wild-type, acetyl-CoA varied, saturating agmatine, pH 8.5): 23 ± 1 s⁻¹
kcat,app ([1]; acyl-CoA varied, 5 mM agmatine, 300 mM Tris-HCl pH 8.5, 150 µM DTNB): 23 ± 1 s⁻¹
Km ([1]; acyl-CoA varied, 5 mM agmatine, 300 mM Tris-HCl pH 8.5, 150 µM DTNB, read-out: Km,app): 100 µM
change (decrease) of Km,app versus wildtype (AgmNAT S171A mutant; S171A mutant, acetyl-CoA): 3- to 4 fold
(kcat/Km)app–mutant/(kcat/Km)app–wild–type×100 (AgmNAT S171A mutant; acetyl-CoA varied): 34%
(kcat/Km)app–mutant/(kcat/Km)app–wild–type×100 (AgmNAT P35A mutant; acetyl-CoA varied): 0.86%

NCCCCN=C(N)N [Agmatine, (4-aminobutyl)guanidine]
increase of Km,app versus wild-type (AgmNAT H206A mutant; agmatine): 1.4 fold
(kcat/Km)app–mutant/(kcat/Km)app–wild–type×100 (AgmNAT H206A mutant; agmatine varied): 4.7%
increase of Km,app versus wildtype (AgmNAT E34A mutant; E34A mutant, agmatine): 20 fold
(kcat/Km)app–mutant/(kcat/Km)app–wild–type×100 (AgmNAT E34A mutant; agmatine varied): 0.0038%
(kcat/Km)app–mutant/(kcat/Km)app–wild–type×100 ([1]; Wild-type, agmatine varied): 100%
change (increase) of Km,app versus wildtype (AgmNAT S171A mutant; S171A mutant, agmatine): 3- to 4 fold
(kcat/Km)app–mutant/(kcat/Km)app–wild–type×100 (AgmNAT S171A mutant; agmatine varied): 2.7%
(kcat/Km)app–mutant/(kcat/Km)app–wild–type×100 (AgmNAT P35A mutant; agmatine varied): 3.2%

COC(=O)[C@@H](N)CCCN=C(N)N [Arginine methyl ester, L-arginine methyl ester]
acceptance as amine substrate ([1]; amine substrate screen with acetyl-CoA): not AgmNAT substrates
Ki ([2]; varied substrate acetyl-CoA, constant agmatine (0.3 mM), listed as arginine methyl ester, read-out: Ki,i): ≥ 1000 µM
Ki ([2]; varied substrate acetyl-CoA, constant agmatine (0.3 mM), read-out: Ki,i): 2900 ± 100 µM
Ki ([2]; varied substrate agmatine, constant acetyl-CoA (0.1 mM; 104 µM), listed as arginine methyl ester, read-out: Ki,s): ≥ 1000 µM
Ki ([2]; varied substrate agmatine, constant acetyl-CoA (0.1 mM; 104 µM), read-out: Ki,s): 1500 ± 100 µM
type of inhibition plot (in words) ([2]; versus acetyl-CoA): uncompetitive
type of inhibition plot (in words) ([2]; versus agmatine): competitive
decrease of the rate of N-acetylagmatine formation from acetyl-CoA and agmatine [3]: ~ 50%

Agmatine N-acetyltransferase (AgmNAT; formerly arylalkylamine N-acetyltransferase-like 8, AANATL8) (Drosophila melanogaster)
pKa (Glu34): 7.7 ± 0.1 and 7.3 ± 0.2 and ~7.5
